Results on nine molecules are retold here after ChEMBL document CHEMBL1201862, “PubChem BioAssay data set” (2004).

SMILES strings stand for the structures.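 In this assay, cells in 96-well plates receive the compound at five concentrations for 48 hours. Endpoints are linearly interpolated between the surrounding concentrations. GI50: concentration for 50% inhibition of growth.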 Activity calls are given as the source filed them. Rule as the data show it: active = GI50 up to about 1.1 µM and inactive = higher.

Some test systems named below: A498; COLO 205; DU-145; IGROV-1; LOX IMVI; MCF7; MDA-MB-231; MDA-N; MOLT-4; OVCAR-5; OVCAR-8; RPMI-8226; SF-295; SK-MEL-28; SNB-19; SNB-75; SW-620; T47D; TK-10; UACC-257.
What all share (assay): NCI-60 cell line screen, 48 h

In the case of `C/C(=N\Nc1ccc([N+](=O)[O-])cc1[N+](=O)[O-])c1sc(-n2nc(-c3ccccc3)cc2-c2ccccc2)nc1C`, the GI50 in the experiment with A498 was 41 µM (inactive); with COLO 205 it was 24.8 µM (inactive); in the experiment on DU-145, 35.5 µM (inactive); in the experiment on IGROV-1, 0.897 µM (active); with LOX IMVI, 11.9 µM (inactive); in the experiment on MCF7, 46.5 µM (inactive). The GI50 is 44.4 µM (inactive) with MDA-MB-231; 46.8 µM (inactive) in the experiment with MDA-N; 16.9 µM (inactive) with MOLT-4; > 100 µM (inactive) in the experiment on OVCAR-5; 30.5 µM (inactive) in the experiment on OVCAR-8; 20.9 µM (inactive) with RPMI-8226. The GI50 in the experiment with SF-295 is 35.7 µM (inactive); with SK-MEL-28 it was 90.2 µM (inactive); in the experiment with SNB-19 it was 93.5 µM (inactive); with SNB-75, 45.5 µM (inactive); in the experiment with SW-620, 26.3 µM (inactive); with T47D, 13.8 µM (inactive). The GI50 in the experiment with TK-10 was 27.9 µM (inactive); in the experiment on UACC-257, 20.8 µM (inactive).
On to `O=C1NC(=S)N/C1=C\c1ccc(Sc2ccccc2C(=O)O)s1`, for which the GI50 with A498, with COLO 205, with DU-145, in the experiment on IGROV-1, in the experiment with LOX IMVI and with MCF7 was > 100 µM (inactive) each time. The GI50 in the experiment on MDA-MB-231, with MDA-N, in the experiment on MOLT-4, in the experiment with OVCAR-5, in the experiment with OVCAR-8 and in the experiment on RPMI-8226 was > 100 µM (inactive) each time. In addition, the GI50 with SF-295, in the experiment on SK-MEL-28, with SNB-19, in the experiment with SNB-75, in the experiment with SW-620 and in the experiment with T47D was > 100 µM (inactive) throughout. Moreover, the GI50 in the experiment on TK-10 and in the experiment on UACC-257 was > 100 µM (inactive) in each case.
Turning to `CN(C)CCC(=O)N1C/C(=C\c2ccc(Cl)c(Cl)c2)C(=O)/C(=C/c2ccc(Cl)c(Cl)c2)C1`, the GI50 with A498 is 1.32 µM (inactive); in the experiment on COLO 205, 0.223 µM (active); in the experiment with DU-145, 0.224 µM (active); with IGROV-1, 0.434 µM (active); with LOX IMVI, 0.1 µM (active); in the experiment on MCF7, 0.14 µM (active). For the same molecule, the GI50 was 0.127 µM (active) with MDA-MB-231; 0.213 µM (active) in the experiment with MDA-N; 0.19 µM (active) in the experiment with MOLT-4; 0.731 µM (active) in the experiment on OVCAR-5; 0.265 µM (active) in the experiment with OVCAR-8; 0.074 µM (active) with RPMI-8226. For the same molecule, the GI50 in the experiment with SF-295 is 0.274 µM (active); in the experiment on SK-MEL-28, 0.618 µM (active); with SNB-19, 0.287 µM (active); with SNB-75 it was 0.415 µM (active); with SW-620 it was 0.102 µM (active); with T47D it was 0.471 µM (active). For the same molecule, the GI50 was 0.625 µM (active) in the experiment with TK-10 and 1.1 µM (active) with UACC-257.
For `Cc1nc2c(nc1C)C(=O)c1ccccc1C2=O`, the GI50 in the experiment on A498 was 3.74 µM (inactive); in the experiment on COLO 205, 2.78 µM (inactive); in the experiment on DU-145, 1.36 µM (inactive); with IGROV-1, 7.96 µM (inactive); with LOX IMVI, 1.05 µM (active); in the experiment with MCF7, 1.36 µM (inactive). Also, the GI50 with MDA-MB-231 is 7.55 µM (inactive); in the experiment with MDA-N it was 0.245 µM (active); with MOLT-4 it was 11.8 µM (inactive); with OVCAR-5, 4.97 µM (inactive); in the experiment with OVCAR-8, 7.53 µM (inactive); in the experiment with RPMI-8226 it was 11.1 µM (inactive). Besides, the GI50 in the experiment with SF-295 was 1.48 µM (inactive); in the experiment on SK-MEL-28 it was 1.84 µM (inactive); in the experiment on SNB-19, 5.37 µM (inactive); in the experiment on SNB-75, 2.64 µM (inactive); in the experiment with SW-620 it was 2.98 µM (inactive); in the experiment on T47D, 2.99 µM (inactive). Also, the GI50 in the experiment with TK-10 is 20.6 µM (inactive); in the experiment with UACC-257, 1.32 µM (inactive).
`N#CN1C2CCC1CC(=O)C2`: the GI50 with A498, in the experiment with COLO 205, with DU-145, in the experiment on IGROV-1, with LOX IMVI and in the experiment on MCF7 was > 100 µM (inactive) throughout. For the same molecule, the GI50 in the experiment on MDA-MB-231, in the experiment with MDA-N, with MOLT-4, in the experiment on OVCAR-5, in the experiment on OVCAR-8 and with RPMI-8226 was > 100 µM (inactive) in each case. Also, the GI50 in the experiment with SF-295, in the experiment with SK-MEL-28, in the experiment with SNB-19, in the experiment on SNB-75, in the experiment with SW-620 and with T47D was > 100 µM (inactive) throughout. Moreover, the GI50 in the experiment on TK-10 and in the experiment with UACC-257 was > 100 µM (inactive) in each case.
Turning to `O=c1c2c3c(sc2nc2n1N=CN(c1ccccc1)C2)CCCC3`, the GI50 in the experiment with A498, with COLO 205, in the experiment with DU-145, in the experiment on IGROV-1, in the experiment with LOX IMVI and with MCF7 was > 100 µM (inactive) throughout. In addition, the GI50 with MDA-MB-231, in the experiment on MDA-N, in the experiment with MOLT-4, with OVCAR-5, with OVCAR-8 and with RPMI-8226 was > 100 µM (inactive) each time. The GI50 in the experiment with SF-295, in the experiment on SK-MEL-28, with SNB-19, with SNB-75, with SW-620 and in the experiment with T47D was > 100 µM (inactive) in each case. Moreover, the GI50 with TK-10 and in the experiment on UACC-257 was > 100 µM (inactive) each time.
As to `CCCOc1ccc(-c2nc(-c3ccc(/N=C/c4ccc(N(CCOS(C)(=O)=O)CCOS(C)(=O)=O)cc4C)cc3)cs2)cc1`, the GI50 with A498 was 7.5 µM (inactive); with COLO 205, 2.21 µM (inactive); in the experiment with DU-145 it was 3.16 µM (inactive); in the experiment with IGROV-1, 20 µM (inactive); in the experiment on LOX IMVI, 14.9 µM (inactive); with MCF7, 15.2 µM (inactive). Besides, the GI50 is 34 µM (inactive) in the experiment on MDA-MB-231; 28.7 µM (inactive) in the experiment with MDA-N; 5.35 µM (inactive) in the experiment with MOLT-4; 31.9 µM (inactive) with OVCAR-5; 25.5 µM (inactive) with OVCAR-8; 61.1 µM (inactive) in the experiment on RPMI-8226. In addition, the GI50 in the experiment with SF-295 was 3.73 µM (inactive); in the experiment with SK-MEL-28 it was 67.9 µM (inactive); in the experiment with SNB-19 it was 41.7 µM (inactive); in the experiment with SNB-75 it was 2.78 µM (inactive); with SW-620 it was 25.7 µM (inactive); in the experiment on T47D it was 26.9 µM (inactive). The values for the GI50 in the experiment on TK-10 and in the experiment on UACC-257 were 18.8 µM (inactive) and 38 µM (inactive), respectively.
Consider `CC(=O)OC(C)(C)/C=C/C(=O)[C@](C)(O)[C@H]1[C@H](O)C[C@@]2(C)[C@@H]3CC=C4[C@@H](C[C@H](O)C(=O)C4(C)C)[C@]3(C)C(=O)C[C@]12C`, for which the GI50 in the experiment on A498, with COLO 205, with DU-145, in the experiment with IGROV-1, in the experiment on LOX IMVI and with MCF7 was < 0.01 µM (active) each time. For the same molecule, the GI50 in the experiment with MDA-MB-231 is < 0.01 µM (active); in the experiment with MDA-N, < 0.01 µM (active); in the experiment with MOLT-4, 0.167 µM (active); in the experiment with OVCAR-5 it was < 0.0246 µM (active); with OVCAR-8 it was 0.064 µM (active); in the experiment on RPMI-8226 it was < 0.01 µM (active). Moreover, the GI50 in the experiment on SF-295 is < 0.01 µM (active); in the experiment on SK-MEL-28, < 0.01 µM (active); with SNB-19, < 0.0174 µM (active); with SNB-75, < 0.01 µM (active); with SW-620 it was < 0.01 µM (active); with T47D, 0.0362 µM (active). Further, the GI50 with TK-10 and in the experiment with UACC-257 was < 0.01 µM (active) in each case.
On to `CC(=O)Nc1ccccc1C=C1c2ccccc2-c2ccccc21`, for which the GI50 in the experiment with A498 was 36.3 µM (inactive); with COLO 205, 78.2 µM (inactive); with DU-145 it was 33.2 µM (inactive); in the experiment with IGROV-1, 33 µM (inactive); with LOX IMVI, > 100 µM (inactive); with MCF7, 20.9 µM (inactive). Also, the GI50 in the experiment on MDA-MB-231 was 17.7 µM (inactive); in the experiment on MDA-N, > 100 µM (inactive); with MOLT-4, 77.1 µM (inactive); in the experiment on OVCAR-5, 35.9 µM (inactive); with OVCAR-8, 21.7 µM (inactive); in the experiment on RPMI-8226 it was 50.2 µM (inactive). For the same molecule, the GI50 with SF-295 is 20.9 µM (inactive); in the experiment with SK-MEL-28, > 100 µM (inactive); in the experiment on SNB-19 it was 17.8 µM (inactive); in the experiment with SNB-75, 17.9 µM (inactive); with SW-620, > 100 µM (inactive); with T47D, 30.4 µM (inactive). In addition, the GI50 in the experiment on TK-10 was 31.3 µM (inactive); in the experiment with UACC-257 it was 56.8 µM (inactive).
